Earlier results, collected in patent US20200101019A1, “USE OF LIPOSOMES FOR TREATMENT OF CHRONIC VIRAL HEPATITIS B” (JIANGSU MENDEL GENE TECHNOLOGY CO., LTD, priority 2017, published 2020).

Test system: Hepatitis B virus (HBV)
Details: AASLD Guidelines for Treatment of Chronic Hepatitis B, Hepatology 2016

Row | Structure (SMILES) | HBeAg/anti-HBe seroconversion rate after treatment with other drugs [%]
1 | Nc1ncnc2c1ncn2CCOCP(=O)(O)O [Adefovir] | 12
2 | C=C1[C@H](CO)[C@@H](O)C[C@@H]1n1cnc2c(=O)[nH]c(N)nc21 [Entecavir] | 21
